Results on one sequence are retold here after patent EP0783524B1, “PEPTIDES AND PHARMACEUTICAL COMPOSITIONS COMPRISING THEM” (YEDA RESEARCH AND DEVELOPMENT CO. LTD., priority 1994, dated 2005).

The subject of one assay is NOD mice. Conditions: results of refs (3) and (4); cited from earlier work.
In another assay the test system is anti-idiotypic T cells. As to the kind of experiment: Immunization followed by spleen T cell proliferation assay (anti-idiotypic response), NOD mice. Type of assay: in vivo. The settings on record: NOD female mice, 12 weeks old, 100 µg per mouse subcutaneously in IPA; tested 2 or 5 weeks after treatment; C9VDJ peptide 5 µg/ml (Figure 9). The source says: The peptides are useful for the production of a medicine for vaccination against IDDM. • Figure 1. Determination by PCR of TCR, Vβ gene usage in the C9 clone. Lanes 1-19: the 19 different Vβ amplification reactions with the Cβ oligonucleotide primer. Lane s.m.: fx/Hae III size marker. The gel was hybridized with an internal Cβ oligonucleotide probe and therefore the size marker is printed. The two positive bands for Vβ2 and Vβ12 indicate the existence of these segments in the C9 clone. • Figure 2. The presence of sequences homologous to the C9 VDJ rearrangement determined by PCR in different T-cell lines using the specific C9 VDJ oligonucleotide primer. The first four lanes show the results of the NOD lines C9 (lane 1), C7 (2), N4 (3), and an anti-ovalbumin line (4). […] T cell responses to hep60 (idiotype) and to the C9 clone (anti-idiotype) were measured in naive female and male NOD mice. […] The proliferative response was measured'by adding 3H-thymidine to the culture for the last 16 h of a 72 h stimulation. The incorporated 3H-thymidine was measured on a β-counter and the stimulation index (SI) was calculated as cpm incorporation in the presence of antigen/cpm incorporation in the absence of antigen. […]

As to “VLGGGCALLRCIPALDSLTPANED (SEQ ID NO:5) [p277]”, in the assay on NOD mice, the “prevention or reversal of diabetes by vaccination” value is listed as “could prevent (3) or even reverse diabetes”. Further, the “anti-C9 response (proliferation to C9VDJ peptide) after peptide treatment” value in the assay with anti-idiotypic T cells is “induces anti-C9 response”.
